{"source": "patent US20220296566A1", "about": "“COMBINATION PRODUCT CONTAINING LIMONOID COMPOUND AND ALPHA-GLUCOSIDASE INHIBITOR” (ZHEJIANG YANGSHENGTANG INSTITUTE OF NATURAL MEDICATION CO., …, priority 2019, published 2022)", "test_system": "STZ mice", "assay": "Blood glucose in STZ mouse pancreatic islet β-cell injury model (Example 3)", "assay_type": "in vivo", "details": "STZ ICR mice; single agent 0.1 g/kg per day by gavage, two weeks; 1 h after last administration; mean ± SD", "from_the_text": "Effects of limonoid compound, acarbose or combination thereof on blood glucose in mouse pancreatic islet (β-cell injury model In this example, a mouse pancreatic islet (β-cell injury model was established by modeling ICR mice with streptozotocin (STZ) (Li Nan et al., Protective effect of pine pollen on kidney damage in diabetic nephropathy mice, Science and Technology Review, 2014, 32 (4/5): 95-99), and used to complete the evaluation of hypoglycemic effect in animals (this model could simulate pancreatic islet (β-cell damage state of type I and type II diabetics). The limonoid compound was selected from the group consisting of […], and […] glycoside, and acarbose single administration group, […] single administration group, […] single administration group, […] glycoside singe administration group, and respective combination thereof with acarbose administration groups were set. Conditions of experimental feeding: ICR mice (20±2 g), aged 6 weeks, purchased from Zhejiang Academy of Medical Sciences, and subjected to experimental feeding after 7 days of preliminary feeding. […] The data were expressed as mean and standard deviation. The data before and after were analyzed by t-test, and P<0.05 was considered statistically significant.", "data": [{"smiles": "C[C@H]1O[C@H](O[C@H]2[C@H](O)[C@@H](O)[C@@H](O[C@H]3[C@H](O)[C@@H](O)C(O)O[C@@H]3CO)O[C@@H]2CO)[C@H](O)[C@@H](O)[C@@H]1N[C@H]1C=C(CO)[C@@H](O)[C@H](O)[C@H]1O", "note": "(stereo partly shown) [Acarbose, acarbose]", "values": [{"measurement": "Blood glucose value", "value": "20.6 ± 4.5", "unit": "mmol/L"}]}]}
